Data reported in ChEMBL document CHEMBL1201862, “PubChem BioAssay data set” (2004).
Calls of active or inactive are those of the source. Rule as the data show it: actives have a measured IC50 and inactives only a lower limit.

Target: Envelope glycoprotein gp160 (Human immunodeficiency virus 1, UniProt Q6QLK5)
Assay: inhibitors of HIV fusion peptide binding, primary screen, biochemical, uHTS, fluorescence dequenching (AID 1986)

Chain of Envelope glycoprotein gp160 (Q6QLK5 whole entry, the tested form may be a part): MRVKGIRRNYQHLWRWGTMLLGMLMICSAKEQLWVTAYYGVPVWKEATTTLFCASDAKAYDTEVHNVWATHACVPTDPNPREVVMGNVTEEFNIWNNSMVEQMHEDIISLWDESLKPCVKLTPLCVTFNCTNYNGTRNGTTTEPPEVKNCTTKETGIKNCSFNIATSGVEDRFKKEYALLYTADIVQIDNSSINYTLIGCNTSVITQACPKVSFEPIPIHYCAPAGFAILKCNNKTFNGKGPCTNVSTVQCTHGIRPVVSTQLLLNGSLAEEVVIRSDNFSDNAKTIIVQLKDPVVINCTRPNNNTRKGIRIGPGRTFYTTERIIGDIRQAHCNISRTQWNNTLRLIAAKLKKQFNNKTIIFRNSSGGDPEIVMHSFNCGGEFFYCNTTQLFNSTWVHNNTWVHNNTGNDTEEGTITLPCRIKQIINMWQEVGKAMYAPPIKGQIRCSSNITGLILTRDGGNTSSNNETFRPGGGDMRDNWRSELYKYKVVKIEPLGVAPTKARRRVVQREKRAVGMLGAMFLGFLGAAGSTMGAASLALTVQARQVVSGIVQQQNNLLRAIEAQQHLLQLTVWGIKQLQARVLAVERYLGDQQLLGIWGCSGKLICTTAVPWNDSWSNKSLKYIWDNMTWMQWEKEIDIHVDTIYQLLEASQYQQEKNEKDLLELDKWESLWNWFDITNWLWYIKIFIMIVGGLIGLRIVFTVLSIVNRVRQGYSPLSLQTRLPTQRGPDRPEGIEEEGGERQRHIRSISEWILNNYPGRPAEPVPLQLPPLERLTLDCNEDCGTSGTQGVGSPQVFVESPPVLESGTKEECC

**Q.** For O=C(Nc1ccc(C(=O)O)cc1)/C(=C\C=C\c1ccccc1)NC(=O)c1cccc(Br)c1, which IC50 is on record?
**A.** 22.6 µM (active)
